The nature of the data set: Loading of curcumin to polymeric micelles, UV-vis spectroscopy. It counts as physicochemical. The protocol: The solution was added dropwise to 3 mL deionized water under stirring at room temperature. The solution was stirred for another 30 min and then dialyzed against deionized water for 24 h (MW cutoff=3500). The solution inside dialysis tubing was collected.

This is an account of results in US9944630B1, “Dithiolane carbonate monomers and polymers thereof” (The Board of Trustees of the Leland Stanford Junior …, priority 2014, dated 2018).

For the compound `COc1cc(/C=C/C(=O)CC(=O)/C=C/c2ccc(O)c(OC)c2)ccc1O` [curcumin, Curcumin], the “effective concentration of curcumin dispersed in micelle solution” value (copolymer 1 micelle solution) was determined as 187 µg/mL. Also, the protection from hydrolysis result (in hydrophobic micellar cores) is given as “effectively protect curcumin from hydrolysis”.
